How the values were obtained:
Experiment in all cases: KINOMEscan
Format in all cases: binding
Conditions in all cases: read-out: % control activity remaining
MAP3K3 = molecular target: T1, MAP3K3 (Homo sapiens, UniProt Q99759)
T1 construct: purchased Eurofins DiscoverX KINOMEscan
T1 sequence (Q99759 1-626): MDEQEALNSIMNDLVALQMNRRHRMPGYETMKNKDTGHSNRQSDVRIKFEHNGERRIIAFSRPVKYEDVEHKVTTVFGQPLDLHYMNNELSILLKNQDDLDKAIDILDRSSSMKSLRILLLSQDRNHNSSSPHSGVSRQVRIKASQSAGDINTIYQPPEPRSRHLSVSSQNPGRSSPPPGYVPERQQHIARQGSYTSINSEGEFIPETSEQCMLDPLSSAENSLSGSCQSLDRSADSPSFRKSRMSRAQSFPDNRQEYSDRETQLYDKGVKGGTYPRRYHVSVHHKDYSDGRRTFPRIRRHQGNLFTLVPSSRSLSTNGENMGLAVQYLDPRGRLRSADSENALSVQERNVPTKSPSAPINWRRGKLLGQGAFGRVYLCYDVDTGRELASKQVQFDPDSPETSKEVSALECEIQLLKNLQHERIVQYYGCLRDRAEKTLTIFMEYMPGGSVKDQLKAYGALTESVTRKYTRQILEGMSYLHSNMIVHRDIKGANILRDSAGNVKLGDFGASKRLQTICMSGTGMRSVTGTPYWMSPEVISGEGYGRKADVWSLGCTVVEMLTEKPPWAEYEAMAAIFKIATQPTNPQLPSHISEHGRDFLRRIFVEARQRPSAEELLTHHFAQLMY

PLK3 = molecular target: T2, PLK3 (Homo sapiens, UniProt Q9H4B4)
T2 construct: purchased Eurofins DiscoverX KINOMEscan
T2 sequence (Q9H4B4 whole entry): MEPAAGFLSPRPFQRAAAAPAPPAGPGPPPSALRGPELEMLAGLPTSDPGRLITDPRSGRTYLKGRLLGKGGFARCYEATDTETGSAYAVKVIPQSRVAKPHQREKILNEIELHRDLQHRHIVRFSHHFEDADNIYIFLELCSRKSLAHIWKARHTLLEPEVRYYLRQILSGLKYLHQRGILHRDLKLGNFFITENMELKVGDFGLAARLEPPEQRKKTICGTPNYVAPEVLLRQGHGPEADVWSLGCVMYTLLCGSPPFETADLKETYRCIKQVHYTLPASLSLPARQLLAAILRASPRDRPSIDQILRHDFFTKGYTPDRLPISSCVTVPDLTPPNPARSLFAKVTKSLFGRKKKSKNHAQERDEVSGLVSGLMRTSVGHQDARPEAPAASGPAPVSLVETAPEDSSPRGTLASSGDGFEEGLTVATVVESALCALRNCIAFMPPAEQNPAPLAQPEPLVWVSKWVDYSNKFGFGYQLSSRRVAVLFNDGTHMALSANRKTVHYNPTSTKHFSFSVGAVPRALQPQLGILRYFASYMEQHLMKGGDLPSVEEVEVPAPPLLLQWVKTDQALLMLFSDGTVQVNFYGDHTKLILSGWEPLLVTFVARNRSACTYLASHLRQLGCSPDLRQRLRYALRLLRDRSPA

DAPK3 = molecular target: T3, DAPK3 (Homo sapiens, UniProt O43293)
T3 construct: purchased Eurofins DiscoverX KINOMEscan
T3 sequence (O43293 whole entry): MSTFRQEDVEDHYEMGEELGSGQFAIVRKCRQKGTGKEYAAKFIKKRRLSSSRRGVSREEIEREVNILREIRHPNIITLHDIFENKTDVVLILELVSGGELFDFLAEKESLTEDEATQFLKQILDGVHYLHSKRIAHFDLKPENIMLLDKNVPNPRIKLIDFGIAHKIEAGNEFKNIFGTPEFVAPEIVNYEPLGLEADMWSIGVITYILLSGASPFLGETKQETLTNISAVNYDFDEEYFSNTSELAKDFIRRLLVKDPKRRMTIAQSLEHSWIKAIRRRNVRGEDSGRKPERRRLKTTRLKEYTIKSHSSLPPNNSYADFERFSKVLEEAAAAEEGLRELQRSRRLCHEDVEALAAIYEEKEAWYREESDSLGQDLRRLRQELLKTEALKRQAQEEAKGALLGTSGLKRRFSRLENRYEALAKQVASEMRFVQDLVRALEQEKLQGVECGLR

CDK5 = molecular target: T4, CDK5 (Homo sapiens, UniProt Q00535)
T4 construct: purchased Eurofins DiscoverX KINOMEscan

MAP3K1 = molecular target: T5, MAP3K1 (Homo sapiens, UniProt Q13233)
T5 construct: purchased Eurofins DiscoverX KINOMEscan

MET = molecular target: T6, MET (Homo sapiens, UniProt P08581)
T6 construct: purchased Eurofins DiscoverX KINOMEscan
T6 sequence (P08581 25-1390): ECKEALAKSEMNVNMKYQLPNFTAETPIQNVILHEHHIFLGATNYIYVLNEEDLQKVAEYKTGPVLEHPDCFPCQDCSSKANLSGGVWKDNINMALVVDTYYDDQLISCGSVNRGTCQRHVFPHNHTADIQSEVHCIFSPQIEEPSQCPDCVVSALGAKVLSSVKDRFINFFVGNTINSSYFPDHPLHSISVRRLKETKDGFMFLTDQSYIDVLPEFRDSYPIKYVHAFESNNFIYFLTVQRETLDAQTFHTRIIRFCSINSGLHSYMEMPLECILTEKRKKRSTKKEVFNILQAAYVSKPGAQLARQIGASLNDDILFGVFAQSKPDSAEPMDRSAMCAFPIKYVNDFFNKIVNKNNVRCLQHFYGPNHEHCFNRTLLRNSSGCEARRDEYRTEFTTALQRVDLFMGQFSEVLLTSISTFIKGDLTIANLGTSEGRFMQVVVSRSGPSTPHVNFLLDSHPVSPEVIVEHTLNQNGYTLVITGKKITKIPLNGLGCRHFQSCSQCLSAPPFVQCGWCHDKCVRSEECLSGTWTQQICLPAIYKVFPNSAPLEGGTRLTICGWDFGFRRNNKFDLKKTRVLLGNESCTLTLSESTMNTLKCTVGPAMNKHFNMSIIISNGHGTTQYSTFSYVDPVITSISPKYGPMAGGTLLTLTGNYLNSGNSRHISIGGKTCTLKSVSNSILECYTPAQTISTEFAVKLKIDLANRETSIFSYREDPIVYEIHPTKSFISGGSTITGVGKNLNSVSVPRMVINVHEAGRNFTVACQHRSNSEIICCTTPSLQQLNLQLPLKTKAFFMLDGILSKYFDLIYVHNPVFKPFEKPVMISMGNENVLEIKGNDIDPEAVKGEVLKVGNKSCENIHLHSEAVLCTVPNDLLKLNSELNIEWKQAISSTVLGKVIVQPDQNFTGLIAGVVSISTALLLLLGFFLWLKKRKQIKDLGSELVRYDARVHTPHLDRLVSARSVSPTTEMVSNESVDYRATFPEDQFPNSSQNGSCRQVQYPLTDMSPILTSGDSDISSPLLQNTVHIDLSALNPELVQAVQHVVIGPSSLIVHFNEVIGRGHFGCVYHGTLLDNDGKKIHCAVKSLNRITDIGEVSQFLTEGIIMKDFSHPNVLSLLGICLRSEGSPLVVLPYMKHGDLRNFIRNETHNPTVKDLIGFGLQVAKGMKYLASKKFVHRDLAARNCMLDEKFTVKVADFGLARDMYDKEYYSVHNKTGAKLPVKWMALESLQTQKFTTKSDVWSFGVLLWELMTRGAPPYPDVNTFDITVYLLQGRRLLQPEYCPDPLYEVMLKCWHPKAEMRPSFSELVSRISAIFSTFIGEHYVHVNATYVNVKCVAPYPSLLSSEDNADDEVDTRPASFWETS

LYN = molecular target: T7, LYN (Homo sapiens, UniProt P07948)
T7 construct: purchased Eurofins DiscoverX KINOMEscan

PIK3CA(H1047L) = molecular target: T8, PIK3CA(H1047L) (Homo sapiens, UniProt P42336, H1047L)
T8 construct: purchased Eurofins DiscoverX KINOMEscan
T8 sequence (P42336 whole entry H1047L): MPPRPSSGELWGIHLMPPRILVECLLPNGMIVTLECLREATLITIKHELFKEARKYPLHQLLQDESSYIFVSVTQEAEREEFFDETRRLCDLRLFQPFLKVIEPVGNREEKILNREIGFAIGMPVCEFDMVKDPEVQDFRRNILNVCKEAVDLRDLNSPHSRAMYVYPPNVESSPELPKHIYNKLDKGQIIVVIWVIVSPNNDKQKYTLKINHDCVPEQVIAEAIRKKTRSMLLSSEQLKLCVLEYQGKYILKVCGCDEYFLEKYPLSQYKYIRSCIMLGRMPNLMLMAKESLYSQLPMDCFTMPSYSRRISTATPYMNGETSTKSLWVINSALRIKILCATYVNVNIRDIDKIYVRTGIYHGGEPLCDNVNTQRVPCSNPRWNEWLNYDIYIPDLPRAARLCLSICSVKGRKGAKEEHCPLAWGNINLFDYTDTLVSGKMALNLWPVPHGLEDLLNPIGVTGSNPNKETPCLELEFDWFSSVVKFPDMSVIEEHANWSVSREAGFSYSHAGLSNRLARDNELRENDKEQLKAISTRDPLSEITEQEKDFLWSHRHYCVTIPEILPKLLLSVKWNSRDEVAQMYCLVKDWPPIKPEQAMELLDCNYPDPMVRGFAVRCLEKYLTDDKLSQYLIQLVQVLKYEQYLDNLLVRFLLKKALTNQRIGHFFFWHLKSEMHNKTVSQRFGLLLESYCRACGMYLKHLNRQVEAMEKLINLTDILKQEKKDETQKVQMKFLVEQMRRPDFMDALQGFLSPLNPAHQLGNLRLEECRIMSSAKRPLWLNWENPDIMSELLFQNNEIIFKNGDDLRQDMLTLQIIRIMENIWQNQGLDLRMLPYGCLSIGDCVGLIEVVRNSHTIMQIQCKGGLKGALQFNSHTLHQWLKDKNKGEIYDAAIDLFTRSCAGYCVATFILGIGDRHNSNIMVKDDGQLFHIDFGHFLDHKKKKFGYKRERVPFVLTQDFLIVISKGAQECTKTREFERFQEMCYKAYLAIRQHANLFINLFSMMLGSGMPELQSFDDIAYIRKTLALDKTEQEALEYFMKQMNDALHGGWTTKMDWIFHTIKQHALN

LATS2 = molecular target: T9, LATS2 (Homo sapiens, UniProt Q9NRM7)
T9 construct: purchased Eurofins DiscoverX KINOMEscan
T9 sequence (Q9NRM7 1-1088): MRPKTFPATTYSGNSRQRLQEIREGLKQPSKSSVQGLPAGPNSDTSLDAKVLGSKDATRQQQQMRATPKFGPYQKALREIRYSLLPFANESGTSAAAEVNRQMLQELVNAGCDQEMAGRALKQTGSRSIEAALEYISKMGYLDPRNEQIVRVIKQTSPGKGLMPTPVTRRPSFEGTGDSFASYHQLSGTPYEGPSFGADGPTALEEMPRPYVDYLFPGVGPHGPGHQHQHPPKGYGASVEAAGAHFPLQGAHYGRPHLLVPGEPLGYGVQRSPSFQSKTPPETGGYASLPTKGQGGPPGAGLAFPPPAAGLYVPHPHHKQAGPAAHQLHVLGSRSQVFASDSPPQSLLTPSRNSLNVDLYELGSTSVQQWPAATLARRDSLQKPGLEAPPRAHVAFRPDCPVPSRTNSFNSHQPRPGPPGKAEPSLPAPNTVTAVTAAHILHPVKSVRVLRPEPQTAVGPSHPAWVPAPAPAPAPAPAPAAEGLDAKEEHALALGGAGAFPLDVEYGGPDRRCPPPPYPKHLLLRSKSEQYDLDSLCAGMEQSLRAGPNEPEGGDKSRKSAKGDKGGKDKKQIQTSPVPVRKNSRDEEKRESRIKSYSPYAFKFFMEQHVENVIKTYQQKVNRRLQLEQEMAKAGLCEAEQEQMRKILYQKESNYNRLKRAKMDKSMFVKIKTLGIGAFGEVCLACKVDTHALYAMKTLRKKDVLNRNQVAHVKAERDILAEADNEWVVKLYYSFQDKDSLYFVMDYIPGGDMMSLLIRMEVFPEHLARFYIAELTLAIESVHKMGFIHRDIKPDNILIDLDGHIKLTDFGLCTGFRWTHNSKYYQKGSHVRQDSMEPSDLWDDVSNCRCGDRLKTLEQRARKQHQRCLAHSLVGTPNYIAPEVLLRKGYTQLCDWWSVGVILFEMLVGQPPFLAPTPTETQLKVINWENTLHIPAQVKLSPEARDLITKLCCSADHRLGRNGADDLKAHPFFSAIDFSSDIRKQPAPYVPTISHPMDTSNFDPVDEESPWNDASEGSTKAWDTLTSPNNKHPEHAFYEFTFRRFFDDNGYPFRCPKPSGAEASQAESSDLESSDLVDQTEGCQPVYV

KIT(V559D,T670I) = molecular target: T10, KIT(V559D,T670I) (Homo sapiens, UniProt P10721, T670I/V559D)
T10 construct: purchased Eurofins DiscoverX KINOMEscan
T10 sequence (P10721 26-976 V559D/T670I): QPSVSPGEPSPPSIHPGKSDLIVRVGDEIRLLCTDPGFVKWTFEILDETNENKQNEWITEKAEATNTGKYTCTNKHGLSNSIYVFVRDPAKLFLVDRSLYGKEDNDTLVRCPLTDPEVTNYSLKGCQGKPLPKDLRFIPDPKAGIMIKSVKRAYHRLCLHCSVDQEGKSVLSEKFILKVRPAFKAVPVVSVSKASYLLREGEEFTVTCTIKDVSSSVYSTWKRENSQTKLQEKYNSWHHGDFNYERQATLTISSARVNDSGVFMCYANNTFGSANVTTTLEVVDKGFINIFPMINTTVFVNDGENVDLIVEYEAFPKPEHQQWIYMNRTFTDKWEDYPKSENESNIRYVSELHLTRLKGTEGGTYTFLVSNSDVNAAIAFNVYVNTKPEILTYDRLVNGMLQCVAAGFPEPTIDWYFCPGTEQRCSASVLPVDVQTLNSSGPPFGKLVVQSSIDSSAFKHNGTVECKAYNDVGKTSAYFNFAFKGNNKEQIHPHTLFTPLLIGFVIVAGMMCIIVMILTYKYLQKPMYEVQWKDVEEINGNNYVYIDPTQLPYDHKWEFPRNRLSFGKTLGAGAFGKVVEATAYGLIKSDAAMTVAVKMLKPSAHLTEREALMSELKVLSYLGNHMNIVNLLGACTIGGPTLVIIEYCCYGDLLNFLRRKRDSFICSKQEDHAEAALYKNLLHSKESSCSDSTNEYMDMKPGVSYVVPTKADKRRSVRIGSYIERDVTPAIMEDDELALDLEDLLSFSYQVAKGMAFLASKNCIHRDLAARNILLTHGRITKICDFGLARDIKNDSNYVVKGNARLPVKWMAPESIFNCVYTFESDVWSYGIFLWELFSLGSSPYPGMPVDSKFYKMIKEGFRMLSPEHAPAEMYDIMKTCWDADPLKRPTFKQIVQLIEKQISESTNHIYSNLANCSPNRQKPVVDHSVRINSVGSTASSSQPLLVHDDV

IRAK4 = molecular target: T11, IRAK4 (Homo sapiens, UniProt Q9NWZ3)
T11 construct: purchased Eurofins DiscoverX KINOMEscan
T11 sequence (Q9NWZ3 1-460): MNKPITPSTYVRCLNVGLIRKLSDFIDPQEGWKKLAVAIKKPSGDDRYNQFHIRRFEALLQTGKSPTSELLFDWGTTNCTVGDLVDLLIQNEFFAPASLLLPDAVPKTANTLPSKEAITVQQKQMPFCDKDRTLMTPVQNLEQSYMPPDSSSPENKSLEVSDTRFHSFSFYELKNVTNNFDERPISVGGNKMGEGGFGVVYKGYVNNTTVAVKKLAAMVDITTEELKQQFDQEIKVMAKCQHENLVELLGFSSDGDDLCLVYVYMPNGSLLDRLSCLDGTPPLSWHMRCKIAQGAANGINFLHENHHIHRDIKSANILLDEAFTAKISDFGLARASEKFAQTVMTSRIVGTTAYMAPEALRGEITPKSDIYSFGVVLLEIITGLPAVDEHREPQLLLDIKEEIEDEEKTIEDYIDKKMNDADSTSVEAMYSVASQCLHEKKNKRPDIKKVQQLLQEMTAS

CLK3 = molecular target: T12, CLK3 (Homo sapiens, UniProt P49761)
T12 construct: purchased Eurofins DiscoverX KINOMEscan
T12 sequence (P49761 whole entry): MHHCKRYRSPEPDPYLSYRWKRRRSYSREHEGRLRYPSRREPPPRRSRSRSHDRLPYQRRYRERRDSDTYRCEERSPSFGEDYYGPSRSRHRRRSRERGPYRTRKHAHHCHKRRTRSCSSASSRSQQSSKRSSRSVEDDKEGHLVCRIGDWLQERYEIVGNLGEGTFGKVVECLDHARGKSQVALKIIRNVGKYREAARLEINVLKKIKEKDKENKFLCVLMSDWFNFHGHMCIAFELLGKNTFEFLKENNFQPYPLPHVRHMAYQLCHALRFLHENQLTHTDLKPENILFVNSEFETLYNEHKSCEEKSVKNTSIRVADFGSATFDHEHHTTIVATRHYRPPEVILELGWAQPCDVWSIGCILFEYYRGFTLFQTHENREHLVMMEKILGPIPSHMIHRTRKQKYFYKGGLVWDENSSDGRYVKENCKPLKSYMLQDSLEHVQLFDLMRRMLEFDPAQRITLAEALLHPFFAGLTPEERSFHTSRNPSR

| Structure (SMILES) | remaining binding at 1 µM (MAP3K3) [%] | remaining binding at 1 µM (PLK3) [%] | remaining binding at 1 µM (DAPK3) [%] | remaining binding at 1 µM (CDK5) [%] | remaining binding at 1 µM (MAP3K1) [%] | remaining binding at 1 µM (MET) [%] | remaining binding at 1 µM (LYN) [%] | remaining binding at 1 µM (PIK3CA(H1047L)) [%] | remaining binding at 1 µM (LATS2) [%] | remaining binding at 1 µM (KIT(V559D,T670I)) [%] | remaining binding at 1 µM (IRAK4) [%] | remaining binding at 1 µM (CLK3) [%] |
| --- | --- | --- | --- | --- | --- | --- | --- | --- | --- | --- | --- | --- |
| Clc1cc(NCC2CC2)c2ncc(-c3ccc4[nH]ncc4c3)n2n1 [compound 2, 6-Chloro-N-(cyclopropylmethyl)-3-(1H-indazol-5-yl)imidazo[1,2-b]pyridazin-8-amine] | 88 | 90 | 85 | 100 | 99 | 90 | 92 | 95 | 58 | 20 | 92 | 70 |
| O=C(CN1CCOCC1)N[C@H]1CC[C@H](Nc2cc(Cl)nn3c(-c4ccc5[nH]ncc5c4)cnc23)CC1 [compound 26] | 89 | 89 | 34 | 92 | 92 | 100 | 96 | 98 | 73 | 0.85 | 85 | 52 |
| CN1CCC(CNc2cc(Cl)nn3c(-c4cc5nc(Nc6ccccc6)[nH]c5cc4F)cnc23)CC1 [compound 31, 6-Chloro-3-(6-fluoro-2-(phenylamino)-1H-benzo[d]imidazol-5-yl)-N-((1-methylpiperidin-4-yl)methyl)imidazo[1,2-b]pyridazin-8-amine] | 73 | 90 | 84 | 99 | 89 | 97 | 95 | 70 | 94 | 97 | 91 | 100 |

— paper PMC6437697 (Journal of Medicinal Chemistry, 2019)
